Test [1] concerns the target T1, TPβ (Homo sapiens, UniProt P21731).
T1 construct: expressed in transfected cells
Description: U46619-induced [Ca2+]i mobilization in HEK.TPβ cells. Conditions: 1 μM U46619; for activity class in HEK.TPβ cells / remaining activity at 1 µM: antagonist 1 μM; for remaining activity at 1 µM / remaining activity at 10 µM: % of agonist-induced response in vehicle-treated cells; for remaining activity at 1 µM: read-out: Percentage of Control, TPβ, 1 μM; for remaining activity at 10 µM: antagonist 10 μM, read-out: Percentage of Control, TPβ, 10 μM. The test is classed as cell-based. From the text: (§1) An appropriate functional test for the evaluation of the agonistic and/or antagonistic potency of the compounds of the invention is the determination of calcium flux. Both TPα and TPβ are coupled to the G-protein Gαq. Therefore, stimulation of these receptors ultimately leads to a release of intracellular calcium ([Ca^2+]i) from intracellular stores. Consequently, the determination of [Ca^2+]i flux represents an appropriate functional test for the evaluation of the agonistic/antagonistic potency of compounds of the invention. Calcium can be measured using a molecule characterized by the covalent combination of a Ca^2+ chelating group and a fluorophore group. The Ca^2+ binding properties of these indicators are formed by the presence of a tetracarboxylic acid core as found for example in EGTA (Ethylene Glycol bis(2-aminoethyl)Tetraacetic Acid). Binding of Ca^2+ produces a wavelength shift in either the excitation or emission fluorescence spectra or a change in the emission intensity. Whereas the Ca^2+ binding to EGTA is pH dependent, recent dyes are designed from an EGTA derivative, BAPTA (1,2-Bis(2-Aminophenoxy)ethane-N,N,N′,N′-Tetraacetic Acid). Loading of these dyes inside cells commonly uses esterified forms (acetoxymethyl ester), which are able to cross the cell membranes and are subsequently hydrolyzed by esterases inside the cell.
(§2) Estimation of [Ca^2+]i flux is calculated from the fluorescence signal (F). For calibration, the maximal fluorescence (Fmax, Ca^2+-saturated form of the dye) as well as minimal fluorescence (Fmin, Ca^2+-free form of the dye) must be determined. These parameters are determined usually in situ after the experiment, for example by subsequent addition to the mixture of a cell-disrupting agent that releases all Ca^2+ such as Triton X100 and a potent Ca^2+-chelating agent such as EGTA. After subtraction of background fluorescence, [Ca^2+]; flux can be calculated for non-ratiometric indicators.
(§3) Intracellular [Ca^2+]; fluxes were measured using a fluorescence plate reader following a modified protocol of Kassack et al., ‘Quantitative comparison of functional screening by measuring intracellular Ca^2+ with radioligand binding at recombinant human dopamine receptors’, AAPS Pharmsci, 2002, 4(4); 102-111, in cell lines (e.g. HEK293 or other cell type) endogenously-expressing or over-expressing either TPα, TPβ or any other receptor or protein to be screened.
(§4) By way of example, HEK 293 cells which have been grown for 3-4 days in normal growth media (minimum essential media containing 10% FBS and 2 mmol/1 L-glutamine), under normal growth conditions (37° C., in humidified 5% CO2 atmosphere) are washed and harvested in KREBs-HEPES buffer (118 mM NaCl, 4.7 mM KCl, 1.2 mM MgSO4, 1.2 mM KH2PO4, 4.2 mM NaHCO3, 11.7 mM D-glucose, 1.3 mM CaCl2, 10 mM HEPES, pH 7.4). Cells are then incubated with 3 μM Fluo-4 in KREBs-HEPES buffer containing 1% Pluoronic F-127, for 1 hr at 25° C. with agitation. Then, cells are washed in KREBs-HEPES buffer containing 0.5% BSA and re-suspended at a final concentration of 3×10^5 cells/ml. Approx. 5.4×10^4 cells per well are plated in a 96-well plate and pre-incubated with test compounds for 10 m prior to measuring the fluorescence intensity at 520 nm for 25 seconds at 1 s intervals to monitor baseline using the Fluoroskan Ascent. Agonist (e.g., 1 μM U46619) is injected into separate wells by the automatic pipettor and fluorescence intensity is monitored at 520 nm for 75 seconds at 1 s intervals. Thereafter, Triton X100 and EGTA are added sequentially where Fmax refers to maximal fluorescence intensity measured after permeabilization of the cells with 2% Triton X100 and Fmin refers to fluorescence intensity measured after addition of 1 mM EGTA.
(§5) The dye Fluo-4 has its excitation peak at 480 nm, in the visible spectra, which spare cells to be damaged by UV (340-360 nm) stimulation and reduces auto-fluorescence of cells. […]

Test [2] has as its target T2, TPα (Homo sapiens, UniProt P21731).
T2 construct: expressed in transfected cells
T2 sequence (P21731 1-343): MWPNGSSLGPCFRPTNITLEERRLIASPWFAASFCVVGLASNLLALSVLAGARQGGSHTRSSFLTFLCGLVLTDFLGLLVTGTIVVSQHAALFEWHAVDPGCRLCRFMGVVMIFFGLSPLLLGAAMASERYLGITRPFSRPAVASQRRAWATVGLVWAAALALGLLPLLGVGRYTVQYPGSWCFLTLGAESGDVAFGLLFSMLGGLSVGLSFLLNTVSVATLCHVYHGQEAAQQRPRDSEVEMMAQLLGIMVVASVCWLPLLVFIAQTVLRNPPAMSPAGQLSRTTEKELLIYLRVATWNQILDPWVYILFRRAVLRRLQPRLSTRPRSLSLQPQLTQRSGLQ
Kind of test: U46619-induced [Ca2+]i mobilization in HEK.TPα cells. The test is classed as cell-based. As to conditions: for remaining activity at 1 µM: antagonist 1 μM, read-out: Percentage of Control, TPα, 1 μM; for remaining activity at 1 µM / remaining activity at 10 µM: % of agonist-induced response in vehicle-treated cells; for remaining activity at 10 µM: antagonist 10 μM, read-out: Percentage of Control, TPα, 10 μM.
From the text: as §1, §2, §3, §4, §5

T1 sequence (P21731 1-407 isoform P21731-2): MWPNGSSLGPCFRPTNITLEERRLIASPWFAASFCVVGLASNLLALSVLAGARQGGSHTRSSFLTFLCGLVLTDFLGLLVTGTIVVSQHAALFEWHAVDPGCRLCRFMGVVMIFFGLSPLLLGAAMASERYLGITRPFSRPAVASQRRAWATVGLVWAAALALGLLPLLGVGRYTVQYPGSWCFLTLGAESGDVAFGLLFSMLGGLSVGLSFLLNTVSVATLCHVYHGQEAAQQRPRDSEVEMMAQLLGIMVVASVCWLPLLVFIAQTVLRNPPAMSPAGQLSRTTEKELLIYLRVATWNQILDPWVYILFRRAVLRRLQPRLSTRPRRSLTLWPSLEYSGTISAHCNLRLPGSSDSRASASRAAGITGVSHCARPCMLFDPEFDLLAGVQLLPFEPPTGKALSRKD

Take `COc1ccc(-c2cccc(Oc3ccc(C(F)(F)F)cc3S(=O)(=O)NC(=O)NC(C)(C)C)c2)cc1` [NTP3, N-(tert-butylcarbamoyl)-2-((4′-methoxy-[1,1′-biphenyl]-3-yl)oxy)-5-(trifluoromethyl)benzenesulfonamide]: in test [1], the “activity class in HEK.TPβ cells” value was “ACTIVE”, the remaining activity at 1 µM is 46 ± 5.92% and the remaining activity at 10 µM stood at 14.8 ± 2.44%. In test [2] (1 μM U46619), the remaining activity at 1 µM turned out to be 69.6 ± 5.35% and the remaining activity at 10 µM was 41.6 ± 5.45%.
For `COc1ccc(-c2cccc(Oc3ccc(Br)cc3S(=O)(=O)NC(=O)NC(C)(C)C)c2)cc1` [NTP7, 5-bromo-N-(tert-butylcarbamoyl)-2-((4′-methoxy-[1,1′-biphenyl]-3-yl)oxy)benzenesulfonamide], in test [1], the “activity class in HEK.TPβ cells” value is on record as “ACTIVE”, the remaining activity at 1 µM was 49 ± 4.41% and the remaining activity at 10 µM worked out at 12.2 ± 1.93%. Besides, in test [2] (1 μM U46619), the remaining activity at 1 µM came to 61.5 ± 7.7% and the remaining activity at 10 µM stood at 32.5 ± 3.95%.
On to `COc1ccc(-c2cccc(Oc3ccc(Cl)cc3S(=O)(=O)NC(=O)NC(C)(C)C)c2)cc1` [NTP30, N-(tert-butylcarbamoyl)-5-chloro-2-((4′-methoxy-[1,1′-biphenyl]-3-yl)oxy)benzenesulfonamide], for which, in test [1], the “activity class in HEK.TPβ cells” value is given as “ACTIVE”, the remaining activity at 1 µM was determined as 46.5 ± 5.86% and the remaining activity at 10 µM is 9.31 ± 1.57%. In test [2] (1 μM U46619), the remaining activity at 1 µM is 52.2 ± 3.9% and the remaining activity at 10 µM turned out to be 23.3 ± 3.63%.
For the compound `COc1ccc(-c2cccc(Oc3ccc(S(C)(=O)=O)cc3S(=O)(=O)NC(=O)NC(C)(C)C)c2)cc1` [NTP27, N-(tert-butylcarbamoyl)-2-((4′-methoxy-[1,1′-biphenyl]-3-yl)oxy)-5-(methylsulfonyl)benzenesulfonamide], in test [1], the “activity class in HEK.TPβ cells” value is recorded as “ACTIVE”, the remaining activity at 1 µM was determined as 36.4 ± 3.8% and the remaining activity at 10 µM came out at 16.3 ± 2.39%. In test [2] (1 μM U46619), the remaining activity at 1 µM is 81.1 ± 10.2% and the remaining activity at 10 µM came to 68.4 ± 4.56%.
For `COc1ccc(-c2cccc(Oc3cc[n+]([O-])cc3S(=O)(=O)NC(=O)NC(C)(C)C)c2)cc1` [NTP41, 3-(N-(tert-butylcarbamoyl)sulfamoyl)-4-((4′-methoxy-[1,1′-biphenyl]-3-yl)oxy)pyridine 1-oxide], in test [1], the remaining activity at 1 µM was determined as 72.2 ± 5.66% and the remaining activity at 10 µM was 18.8 ± 1.77%. In addition, in test [2] (1 μM U46619), the remaining activity at 1 µM amounted to 82.6 ± 3.41% and the remaining activity at 10 µM turned out to be 52.8 ± 8.03%.
The corresponding values for `COc1ccc(-c2cccc(Oc3ccc(-c4c(C)noc4C)cc3S(=O)(=O)NC(=O)NC(C)(C)C)c2)cc1` [NTP19] are 77.7 ± 3.24%, 64.5 ± 4.65%, 97.6 ± 8.6% and 99.4 ± 16%.
Regarding `CCNC(=O)c1ccc(Oc2cccc(-c3ccc(OC)cc3)c2)c(S(=O)(=O)NC(=O)NC(C)(C)C)c1` [NTP28], the remaining activity at 1 µM in test [1] was found to be 110 ± 1.85%; in test [2] (1 μM U46619), 108 ± 7.64%. Moreover, the remaining activity at 10 µM in test [1] stood at 62.3 ± 4.3%; in test [2] (1 μM U46619), 89.5 ± 10.3%.
Take `COc1ccc(-c2cccc(Oc3ccncc3S(=O)(=O)NC(=O)NC(C)(C)C)c2)cc1` [NTP31, N-(tert-butylcarbamoyl)-4-((4′-methoxy-[1,1′-biphenyl]-3-yl)oxy)pyridine-3-sulfonamide]: in test [1], the remaining activity at 1 µM was 74.8 ± 5.49% and the remaining activity at 10 µM worked out at 27.7 ± 4.21%. For the same compound, in test [2] (1 μM U46619), the remaining activity at 1 µM is 77.3 ± 8.72% and the remaining activity at 10 µM came to 52.7 ± 2.89%.
For `COc1ccc(-c2cccc(Oc3ccc(C(=O)NCc4ccccn4)cc3S(=O)(=O)NC(=O)NC(C)(C)C)c2)cc1` [NTP11] the same measures were 49.8 ± 1.86%, 20.7 ± 2.81%, 73.1 ± 5.28% and 75.4 ± 5.83%.
Turning to `COc1ccc(-c2cccc(Oc3ccc(-c4ccco4)cc3S(=O)(=O)NC(=O)NC(C)(C)C)c2)cc1` [NTP21], in test [1], the remaining activity at 1 µM amounted to 51 ± 1.62% and the remaining activity at 10 µM was 32.2 ± 2.89%. In test [2] (1 μM U46619), the remaining activity at 1 µM is 78.3 ± 8.28% and the remaining activity at 10 µM was 66.4 ± 4.95%.
Take `COc1ccc(-c2cccc(Oc3ccc(C(=O)Nc4ncco4)cc3S(=O)(=O)NC(=O)NC(C)(C)C)c2)cc1` [NTP24]: the remaining activity at 1 µM is 87.7 ± 8.18% in test [1] and 96.8 ± 3.94% in test [2] (1 μM U46619). For the same compound, the remaining activity at 10 µM stood at 37.9 ± 2.61% in test [1] and 107 ± 6.48% in test [2] (1 μM U46619).
For `COc1ccc(-c2cccc(Oc3ccc(-c4cn[nH]c4)cc3S(=O)(=O)NC(=O)NC(C)(C)C)c2)cc1` [NTP18] the same measures were 45 ± 4.34%, 93.4 ± 6.17%, 22.6 ± 2.28% and 73.6 ± 2.98%.
As for `COc1ccc(-c2cccc(Oc3ccc(C(=O)NC4COC4)cc3S(=O)(=O)NC(=O)NC(C)(C)C)c2)cc1` [NTP12], in test [1], the remaining activity at 1 µM is 84.2 ± 7.51% and the remaining activity at 10 µM is 34.4 ± 2.85%. In test [2] (1 μM U46619), the remaining activity at 1 µM turned out to be 99.7 ± 2.13% and the remaining activity at 10 µM was 77.9 ± 2.69%.
For `COc1ccc(-c2cccc(Oc3ccc(N)cc3S(=O)(=O)NC(=O)NC(C)(C)C)c2)cc1` [NTP1, 5-amino-N-(tert-butylcarbamoyl)-2-((4′-methoxy-[1,1′-biphenyl]-3-yl)oxy)benzene-sulfonamide], in test [1], the remaining activity at 1 µM is 101 ± 4.75% and the remaining activity at 10 µM stood at 102 ± 4.15%. Moreover, in test [2] (1 μM U46619), the remaining activity at 1 µM stood at 77.8 ± 8.71% and the remaining activity at 10 µM worked out at 50.2 ± 6.39%.
`COc1ccc(-c2cccc(Oc3ccc(C(=O)NCC4CC4)cc3S(=O)(=O)NC(=O)NC(C)(C)C)c2)cc1` [NTP16]: in test [1], the remaining activity at 1 µM was determined as 83 ± 7.62% and the remaining activity at 10 µM amounted to 34 ± 3.88%. Moreover, in test [2] (1 μM U46619), the remaining activity at 1 µM came to 117 ± 10.2% and the remaining activity at 10 µM was 96.3 ± 1.24%.
For orientation: IC50 means the concentration needed to halve the response being measured. For `CC(C)(C)NC(=O)NS(=O)(=O)c1cc([N+](=O)[O-])ccc1Oc1cccc(I)c1` [XXXVIII, 2-(3-Iodophenoxy)-5-nitrobenzene(t-butyl)sulfonyl urea], the concentration for half-maximal inhibition (IC50) was 1990 nM in test [1] (HEK.TPβ cells, Table 2, read-out: IC50 data for U46619-mediated [Ca2+]i mobilization, TPβ) and 4010 nM in test [2] (HEK.TPα cells, 1 μM U46619, Table 2, read-out: IC50 data for U46619-mediated [Ca2+]i mobilization, TPα). Moreover, the “TPα:TPβ Selectivity Ratio” value in test [2] (IC50 TPα/IC50 TPβ) was found to be 2.

(Values after patent publication US9718781B2, “Methods and compounds for treating proliferative disorders and viral infections” (University College Dublin, National University of Ireland, …, priority 2012, dated 2017).)
